Experimental data as given in the supplement of paper PMC10307832.

Legend:
Experiment in all cases: relative viability (nuclei count vs DMSO), 5 days (fraction); higher = more cells survive
BEN = tested on: BEN
Outline: (§1)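 Values are medians from duplicate plates. Each reflects relative viability, defined as the nuclei count of treated wells over that of vehicle wells. Lung cancer cell lines in 1536-well plates were pin-tool dosed one day after seeding with one drug alone or with a fixed anchor-drug dose plus five library-drug doses (not always all listed) in √10 steps, then fixed, stained and imaged at 4× after 5 days.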

CAL-12T = tested on: CAL-12T
Outline: as §1

COR-L23 = tested on: COR-L23
Outline: as §1

HCC-366 = tested on: HCC-366
Outline: as §1

LOU-NH91 = tested on: LOU-NH91
Outline: as §1

LU99A = tested on: LU99A
Outline: as §1

NCI-H1355 = tested on: NCI-H1355
Outline: as §1

NCI-H1437 = tested on: NCI-H1437
Outline: as §1

NCI-H1563 = tested on: NCI-H1563
Outline: as §1

NCI-H1650 = tested on: NCI-H1650
Outline: as §1

NCI-H1651 = tested on: NCI-H1651
Outline: as §1

Compound: Cc1sc2c(c1C)C(c1ccc(Cl)cc1)=N[C@@H](CC(=O)OC(C)(C)C)c1nnc(C)n1-2 [JQ1] + Cc1nc(Nc2ncc(C(=O)Nc3c(C)cccc3Cl)s2)cc(N2CCN(CCO)CC2)n1 [Dasatinib] (partner 0.075 µM)
- relative viability (BEN; first compound 0.04 µM): 0.302
- relative viability (BEN; first compound 0.1265 µM): 0.307
- relative viability (BEN; first compound 0.4 µM): 0.309
- relative viability (BEN; first compound 1.265 µM): 0.274
- relative viability (BEN; first compound 4 µM): 0.217
- relative viability (CAL-12T; first compound 0.04 µM): 0.427
- relative viability (CAL-12T; first compound 0.1265 µM): 0.332
- relative viability (CAL-12T; first compound 0.4 µM): 0.228
- relative viability (CAL-12T; first compound 1.265 µM): 0.144
- relative viability (CAL-12T; first compound 4 µM): 0.213
- relative viability (COR-L23; first compound 0.04 µM): 0.507
- relative viability (COR-L23; first compound 0.1265 µM): 0.351
- relative viability (COR-L23; first compound 0.4 µM): 0.516
- relative viability (COR-L23; first compound 1.265 µM): 0.279
- relative viability (COR-L23; first compound 4 µM): 0.256
- relative viability (HCC-366; first compound 0.04 µM): 0.667
- relative viability (HCC-366; first compound 0.4 µM): 0.599
- relative viability (HCC-366; first compound 1.265 µM): 0.368
- relative viability (HCC-366; first compound 4 µM): 0.324
- relative viability (LOU-NH91; first compound 0.04 µM): 0.549
- relative viability (LOU-NH91; first compound 0.1265 µM): 0.463
- relative viability (LOU-NH91; first compound 0.4 µM): 0.324
- relative viability (LOU-NH91; first compound 1.265 µM): 0.326
- relative viability (LOU-NH91; first compound 4 µM): 0.354
- relative viability (LU99A; first compound 0.04 µM): 0.551
- relative viability (LU99A; first compound 0.1265 µM): 0.378
- relative viability (LU99A; first compound 0.4 µM): 0.603
- relative viability (LU99A; first compound 1.265 µM): 0.207
- relative viability (LU99A; first compound 4 µM): 0.206
- relative viability (NCI-H1355; first compound 0.04 µM): 0.774
- relative viability (NCI-H1355; first compound 0.1265 µM): 0.578
- relative viability (NCI-H1355; first compound 0.4 µM): 0.617
- relative viability (NCI-H1355; first compound 1.265 µM): 0.486
- relative viability (NCI-H1355; first compound 4 µM): 0.447
- relative viability (NCI-H1437; first compound 0.04 µM): 0.394
- relative viability (NCI-H1437; first compound 0.1265 µM): 0.365
- relative viability (NCI-H1437; first compound 0.4 µM): 0.263
- relative viability (NCI-H1437; first compound 1.265 µM): 0.217
- relative viability (NCI-H1437; first compound 4 µM): 0.244
- relative viability (NCI-H1563; first compound 0.04 µM): 0.446
- relative viability (NCI-H1563; first compound 0.1265 µM): 0.405
- relative viability (NCI-H1563; first compound 0.4 µM): 0.533
- relative viability (NCI-H1563; first compound 1.265 µM): 0.443
- relative viability (NCI-H1563; first compound 4 µM): 0.362
- relative viability (NCI-H1650; first compound 0.04 µM): 0.313
- relative viability (NCI-H1650; first compound 0.1265 µM): 0.272
- relative viability (NCI-H1650; first compound 0.4 µM): 0.201
- relative viability (NCI-H1650; first compound 1.265 µM): 0.134
- relative viability (NCI-H1650; first compound 4 µM): 0.143
- relative viability (NCI-H1651; first compound 0.04 µM): 0.384
- relative viability (NCI-H1651; first compound 0.1265 µM): 0.292
- relative viability (NCI-H1651; first compound 0.4 µM): 0.306
- relative viability (NCI-H1651; first compound 1.265 µM): 0.246
- relative viability (NCI-H1651; first compound 4 µM): 0.221
